Measured values published in patent US20230295087A1, “AGONISTS OF ROR GAMMAt” (BRISTOL-MYERS SQUIBB COMPANY, priority 2019, published 2023).

Biological target: T1, human RORgT (Homo sapiens, UniProt P51449)
T1 construct: expressed in transfected cells
T1 sequence (P51449 267-516): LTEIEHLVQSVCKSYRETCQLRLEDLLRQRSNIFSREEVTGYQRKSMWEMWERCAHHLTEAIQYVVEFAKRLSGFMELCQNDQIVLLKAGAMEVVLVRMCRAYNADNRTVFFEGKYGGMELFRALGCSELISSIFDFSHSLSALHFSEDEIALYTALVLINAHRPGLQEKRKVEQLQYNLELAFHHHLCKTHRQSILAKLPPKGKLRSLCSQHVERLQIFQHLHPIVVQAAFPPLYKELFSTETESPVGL
Assay: RORgT Gal4 Luciferase Reporter Gene Assay
Format: cell-based
Conditions: engineered Jurkat cells overexpressing RORgT (LBD or full length) fused with Gal4 Luc reporter; 18 hours at 37° C.; luminescence
In short: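 Jurkat cells expressing Gal4 Luc with either RORgT LBD (aa267-516) or full-length human RORgT, 10,000 cells/well, treated with compound (40 µM to 0.67 nM final, 3-fold dilutions) for 18 h at 37° C. Steady-Glo luminescence read; inhibition of constitutive activity as % signal-window reduction relative to a control compound.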

Structure (SMILES)	EC50
O=C(NC1CCOCC1)N1CC[C@@]2(S(=O)(=O)c3ccccc3)c3ccc(OCc4c(Cl)cccc4Cl)cc3CC[C@@H]12 [Example 89, (3aR,9bR)-9b-(benzenesulfonyl)-7-[(2,6-dichlorophenyl)methoxy]-N-(oxan-4-yl)-1H,2H,3H,3aH,4H,5H,9bH-benzo[e]indole-3-carboxamide]	114 nM
CC(C)(O)CNC(=O)N1CC[C@@]2(S(=O)(=O)c3ccccc3)c3ccc(OCc4c(Cl)cccc4Cl)cc3CC[C@@H]12 [Example 91, (3aR,9bR)-9b-(benzenesulfonyl)-7-[(2,6-dichlorophenyl)methoxy]-N-(2-hydroxy-2-methylpropyl)-1H,2H,3H,3aH,4H,5H,9bH-benzo[e]indole-3-carboxamide]	104 nM
CS(=O)(=O)CCNC(=O)N1CC[C@@]2(S(=O)(=O)c3ccccc3)c3ccc(OCc4c(Cl)cccc4Cl)cc3CC[C@@H]12 [Example 92, (3aR,9bR)-9b-(benzenesulfonyl)-7-[(2,6-dichlorophenyl)methoxy]-N-(2-methanesulfonylethyl)-1H,2H,3H,3aH,4H,5H,9bH-benzo[e]indole-3-carboxamide]	197 nM
O=C(Nc1ccnnc1)N1CC[C@@]2(S(=O)(=O)c3ccccc3)c3ccc(OCc4c(Cl)cccc4Cl)cc3CC[C@@H]12 [Example 95, (3aR,9bR)-9b-(benzenesulfonyl)-7-[(2,6-dichlorophenyl)methoxy]-N-(pyridazin-4-yl)-1H,2H,3H,3aH,4H,5H,9bH-benzo[e]indole-3-carboxamide]	194 nM
CS(=O)(=O)n1cc(C(=O)N2CC[C@@]3(S(=O)(=O)c4ccccc4)c4ccc(OCc5c(Cl)cccc5Cl)cc4CC[C@@H]23)cn1 [Example 99, 4-[(3aR,9bR)-9b-(benzenesulfonyl)-7-[(2,6-dichlorophenyl)methoxy]-1H,2H,3H,3aH,4H,5H,9bH-benzo[e]indole-3-carbonyl]-1-methanesulfonyl-1H-pyrazole]	748 nM
Cn1cc(C(=O)N2CC[C@@]3(S(=O)(=O)c4ccccc4)c4ccc(OCc5c(Cl)cccc5Cl)cc4CC[C@@H]23)cn1 [Example 100, 4-[(3aR,9bR)-9b-(benzenesulfonyl)-7-[(2,6-dichlorophenyl)methoxy]-1H,2H,3H,3aH,4H,5H,9bH-benzo[e]indole-3-carbonyl]-1-methyl-1H-pyrazole]	317 nM
O=C(NC1CCS(=O)(=O)C1)N1CC[C@@]2(S(=O)(=O)c3ccccc3)c3ccc(OCc4c(Cl)cccc4Cl)cc3CC[C@@H]12 (stereo partly drawn) [Example 101, (3aR,9bR)-9b-(benzenesulfonyl)-7-[(2,6-dichlorophenyl)methoxy]-N-(1,1-dioxo-1λ^6-thiolan-3-yl)-1H,2H,3H,3aH,4H,5H,9bH-benzo[e]indole-3-carboxamide]	62 nM
CC(C)S(=O)(=O)CC(=O)N1CC[C@@]2(S(=O)(=O)c3ccccc3)c3ccc(OCc4c(Cl)cccc4Cl)cc3CC[C@@H]12 [Example 102, 1-[(3aR,9bR)-9b-(benzenesulfonyl)-7-[(2,6-dichlorophenyl)methoxy]-1H,2H,3H,3aH,4H,5H,9bH-benzo[e]indol-3-yl]-2-(propane-2-sulfonyl)ethan-1-one]	620 nM
CS(=O)(=O)N1CCC(CCC(=O)N2CC[C@@]3(S(=O)(=O)c4ccccc4)c4ccc(OCc5c(Cl)cccc5Cl)cc4CC[C@@H]23)CC1 [Example 103, 1-[(3aR,9bR)-9b-(benzenesulfonyl)-7-[(2,6-dichlorophenyl)methoxy]-1H,2H,3H,3aH,4H,5H,9bH-benzo[e]indol-3-yl]-3-(1-methanesulfonylpiperidin-4-yl)propan-1-one]	259 nM
O=C(N1CC[C@@]2(S(=O)(=O)c3ccc(F)cc3)c3ccc(OCc4ccc(F)cc4Cl)cc3CC[C@@H]12)C1(O)CCS(=O)(=O)CC1 [Example 104, 4-[(3aR,9bR)-7-[(2-chloro-4-fluorophenyl)methoxy]-9b-(4-fluorobenzenesulfonyl)-1H,2H,3H,3aH,4H,5H,9bH-benzo[e]indole-3-carbonyl]-4-hydroxy-1λ^6-thiane-1,1-dione]	5.6 nM
CC(=O)N[C@H]1CC[C@H](C(=O)N2CC[C@@]3(S(=O)(=O)c4ccc(F)cc4)c4ccc(OCc5c(F)cccc5C(F)(F)F)cc4CC[C@@H]23)CC1 [Example 108, N-[(1r,4r)-4-[(3aR,9bR)-7-{[2-fluoro-6-(trifluoromethyl)phenyl]methoxy} -9b-(4-fluorobenzenesulfonyl)-1H,2H,3H,3aH,4H,5H,9bH-benzo[e]indole-3-carbonyl]cyclohexyl]acetamide]	131 nM
O=C(O)[C@H]1CC[C@H](C(=O)N2CC[C@@]3(S(=O)(=O)c4ccc(Cl)cc4)c4ccc(OCc5c(F)cccc5C(F)(F)F)cc4CC[C@@H]23)CC1 [Example 111, (1r,4r)-4-[(3aR,9bR)-9b-(4-chlorobenzenesulfonyl)-7-{[2-fluoro-6-(trifluoromethyl)phenyl]methoxy} -1H,2H,3H,3aH,4H,5H,9bH-benzo[e]indole-3-carbonyl]cyclohexane-1-carboxylic acid]	2.7 nM
O=C(O)[C@H]1CC[C@](O)(C(=O)N2CC[C@@]3(S(=O)(=O)c4ccc(F)cc4)c4ccc(OCc5cc(Cl)ccc5Cl)cc4CC[C@@H]23)CC1 [Example 112, (1 s,4 s)-4-[(3aR,9bR)-7-[(2,5-dichlorophenyl)methoxy]-9b-(4-fluorobenzenesulfonyl)-1H,2H,3H,3aH,4H,5H,9bH-benzo[e]indole-3-carbonyl] -4-hydroxycyclohexane-1-carboxylic acid]	3.6 nM
C[C@]1(C(=O)N2CC[C@@]3(S(=O)(=O)c4ccc(F)cc4)c4ccc(OCc5cc(Cl)ccc5Cl)cc4CC[C@@H]23)CC[C@H](C(=O)O)CC1 [Example 113, (1r,4r)-4-[(3aR,9bR)-7-[(2,5-dichlorophenyl)methoxy]-9b-(4-fluorobenzenesulfonyl)-1H,2H,3H,3aH,4H,5H,9bH-benzo[e]indole-3-carbonyl]-4-methylcyclohexane-1-carboxylic acid]	3.1 nM
O=C(O)[C@H]1CC[C@H](C(=O)N2CC[C@@]3(S(=O)(=O)c4ccc(F)cc4)c4ccc(OCc5ccncc5Cl)cc4CC[C@@H]23)CC1 [Example 114, (1r,4r)-4-[(3aR,9bR)-7-[(3-chloropyridin-4-yl)methoxy]-9b-(4-fluorobenzenesulfonyl)-1H,2H,3H,3aH,4H,5H,9bH-benzo[e]indole-3-carbonyl]cyclohexane-1-carboxylic acid]	53 nM

Second part, the compound after the results:

EC50	Structure (SMILES)
712 nM	CS(=O)(=O)N[C@@H]1CCCN(C(=O)N2CC[C@@]3(S(=O)(=O)c4ccccc4)c4ccc(OCc5c(Cl)cccc5Cl)cc4CC[C@@H]23)C1 [Example 90, N-[(3R)-1-[(3aR,9bR)-9b-(benzenesulfonyl)-7-[(2,6-dichlorophenyl)methoxy]-1H,2H,3H,3aH,4H,5H,9bH-benzo[e]indole-3-carbonyl]piperidin-3-yl]methanesulfonamide]
290 nM	CS(=O)(=O)C1CCN(C(=O)N2CC[C@@]3(S(=O)(=O)c4ccccc4)c4ccc(OCc5c(Cl)cccc5Cl)cc4CC[C@@H]23)C1 (stereo partly drawn) [Example 93, 1-[(3aR,9bR)-9b-(benzenesulfonyl)-7-[(2,6-dichlorophenyl)methoxy]-1H,2H,3H,3aH,4H,5H,9bH-benzo[e]indole-3-carbonyl]-3-methanesulfonylpyrrolidine]
15 nM	CC(=O)N1CCN(C(=O)N2CC[C@@]3(S(=O)(=O)c4ccccc4)c4ccc(OCc5c(Cl)cccc5Cl)cc4CC[C@@H]23)CC1 [Example 94, 1-{4-[(3aR,9bR)-9b-(benzenesulfonyl)-7-[(2,6-dichlorophenyl)methoxy]-1H,2H,3H,3aH,4H,5H,9bH-benzo[e]indole-3-carbonyl]piperazin-1-yl}ethan-1-one]
13 nM	O=C(N1CC[C@@]2(S(=O)(=O)c3ccccc3)c3ccc(OCc4c(Cl)cccc4Cl)cc3CC[C@@H]12)C1(O)CCOCC1 [Example 96, 4-[(3aR,9bR)-9b-(benzenesulfonyl)-7-[(2,6-dichlorophenyl)methoxy]-1H,2H,3H,3aH,4H,5H,9bH-benzo[e]indole-3-carbonyl]oxan-4-ol]
846 nM	CN1CCCC(C(=O)N2CC[C@@]3(S(=O)(=O)c4ccccc4)c4ccc(OCc5c(Cl)cccc5Cl)cc4CC[C@@H]23)C1 (stereo partly drawn) [Example 97, 3-[(3aR,9bR)-9b-(benzenesulfonyl)-7-[(2,6-dichlorophenyl)methoxy]-1H,2H,3H,3aH,4H,5H,9bH-benzo[e]indole-3-carbonyl]-1-methylpiperidine]
19 nM	CS(=O)(=O)N1CC(C(=O)N2CC[C@@]3(S(=O)(=O)c4ccccc4)c4ccc(OCc5c(Cl)cccc5Cl)cc4CC[C@@H]23)C1 [Example 98, 3-[(3aR,9bR)-9b-(benzenesulfonyl)-7-[(2,6-dichlorophenyl)methoxy]-1H,2H,3H,3aH,4H,5H,9bH-benzo[e]indole-3-carbonyl]-1-methanesulfonylazetidine]
7.9 nM	O=C(N1CC[C@@]2(S(=O)(=O)c3ccccc3)c3ccc(OCc4c(Cl)cccc4Cl)cc3CC[C@@H]12)C1(O)CCS(=O)(=O)CC1 [Example 105, 4-[(3aR,9bR)-9b-(benzenesulfonyl)-7-[(2,6-dichlorophenyl)methoxy]-1H,2H,3H,3aH,4H,5H,9bH-benzo[e]indole-3-carbonyl]-4-hydroxy-1λ^6-thiane-1,1-dione]
2.8 nM	NC(=O)[C@H]1CC[C@H](C(=O)N2CC[C@@]3(S(=O)(=O)c4ccccc4)c4ccc(OCc5c(Cl)cccc5Cl)cc4CC[C@@H]23)CC1 [Example 106, (1r,4r)-4-[(3aR,9bR)-9b-(benzenesulfonyl)-7-[(2,6-dichlorophenyl)methoxy]-1H,2H,3H,3aH,4H,5H,9bH-benzo[e]indole-3-carbonyl]cyclohexane-1-carboxamide]
